Values joined by “and” are separate entries in the source; they are usually repeats but may differ in a detail not shown here. Equal entries are not always repeated.
Experiment: xn = mol fraction of the nth substance listed
Settings: 101 kPa, Liquid, Vibrating tube method

C1CCCNCC1 [azacycloheptane] + O
mass density
Settings	283.15 K	288.15 K	293.15 K	298.15 K	303.15 K	308.15 K	313.15 K
x2 = 0.0199	891.47 kg/m3	887.05 kg/m3	882.62 kg/m3	878.18 kg/m3	873.74 kg/m3	869.29 kg/m3	864.83 kg/m3
x2 = 0.0395	892.56 kg/m3	888.13 kg/m3	883.7 kg/m3	879.25 kg/m3	874.8 kg/m3	870.34 kg/m3	865.87 kg/m3
x2 = 0.0821	895.27 kg/m3	890.84 kg/m3	886.39 kg/m3	881.94 kg/m3	877.47 kg/m3	872.99 kg/m3	868.49 kg/m3
x2 = 0.1198	897.59 kg/m3	893.16 kg/m3	888.7 kg/m3	884.23 kg/m3	879.75 kg/m3	875.26 kg/m3	870.75 kg/m3
x2 = 0.1594	900.05 kg/m3	895.61 kg/m3	891.15 kg/m3	886.67 kg/m3	882.19 kg/m3	877.68 kg/m3	873.16 kg/m3
x2 = 0.1994	902.85 kg/m3	898.4 kg/m3	893.94 kg/m3	889.46 kg/m3	884.96 kg/m3	880.45 kg/m3	875.92 kg/m3
x2 = 0.2498	906.32 kg/m3	901.88 kg/m3	897.41 kg/m3	892.92 kg/m3	888.42 kg/m3	883.9 kg/m3	879.35 kg/m3
x2 = 0.3	909.81 kg/m3	905.38 kg/m3	900.91 kg/m3	896.42 kg/m3	891.91 kg/m3	887.38 kg/m3	–
x2 = 0.3499	913.73 kg/m3	909.3 kg/m3	904.84 kg/m3	900.36 kg/m3	895.85 kg/m3	891.32 kg/m3	–
x2 = 0.4	917.67 kg/m3	913.25 kg/m3	908.79 kg/m3	904.32 kg/m3	899.81 kg/m3	895.28 kg/m3	–
x2 = 0.4529	922.26 kg/m3	917.86 kg/m3	913.42 kg/m3	908.96 kg/m3	904.46 kg/m3	899.94 kg/m3	–
x2 = 0.5008	926.61 kg/m3	922.24 kg/m3	917.83 kg/m3	913.38 kg/m3	908.91 kg/m3	904.4 kg/m3	–
x2 = 0.5041	926.61 kg/m3	922.23 kg/m3	917.82 kg/m3	913.38 kg/m3	908.91 kg/m3	904.4 kg/m3	–
x2 = 0.5508	931.05 kg/m3	926.72 kg/m3	922.34 kg/m3	917.93 kg/m3	913.48 kg/m3	909 kg/m3	–
x2 = 0.5992	935.7 kg/m3	931.42 kg/m3	927.09 kg/m3	922.72 kg/m3	918.31 kg/m3	913.86 kg/m3	–
x2 = 0.65	941.01 kg/m3	936.79 kg/m3	932.53 kg/m3	928.22 kg/m3	923.88 kg/m3	919.49 kg/m3	–
x2 = 0.699	946.42 kg/m3	942.29 kg/m3	938.12 kg/m3	933.9 kg/m3	929.63 kg/m3	925.32 kg/m3	–
x2 = 0.7496	952.51 kg/m3	948.5 kg/m3	944.46 kg/m3	940.36 kg/m3	936.22 kg/m3	932.02 kg/m3	–
x2 = 0.7994	959.33 kg/m3	955.51 kg/m3	951.64 kg/m3	947.71 kg/m3	943.73 kg/m3	939.69 kg/m3	–
x2 = 0.8398	965.5 kg/m3	961.88 kg/m3	958.2 kg/m3	954.47 kg/m3	950.68 kg/m3	946.83 kg/m3	–
x2 = 0.8799	972.62 kg/m3	969.3 kg/m3	965.9 kg/m3	962.45 kg/m3	958.91 kg/m3	955.31 kg/m3	–
x2 = 0.92	981.18 kg/m3	978.28 kg/m3	975.3 kg/m3	972.24 kg/m3	969.1 kg/m3	965.86 kg/m3	–
x2 = 0.9597	–	–	–	984.66 kg/m3 and 984.68 kg/m3	–	–	–
x2 = 0.9599	991.53 kg/m3	989.32 kg/m3	986.99 kg/m3	984.54 kg/m3	981.98 kg/m3	979.29 kg/m3	–
x2 = 0.96	991.6 kg/m3	989.39 kg/m3	987.06 kg/m3	984.61 kg/m3	982.04 kg/m3	979.35 kg/m3	–
x2 = 0.9699	994.44 kg/m3	992.49 kg/m3	990.4 kg/m3	988.16 kg/m3	985.8 kg/m3	983.3 kg/m3	–
x2 = 0.9798	–	–	–	991.9 kg/m3	–	–	–
x2 = 0.98	997.1 kg/m3	995.56 kg/m3	993.8 kg/m3	991.86 kg/m3	989.75 kg/m3	987.48 kg/m3	–
x2 = 0.9851	–	–	–	993.77 kg/m3	–	–	–
x2 = 0.9882	–	–	–	994.59 kg/m3	–	–	–
x2 = 0.9899	–	–	–	994.98 kg/m3	–	–	–
x2 = 0.9921	–	–	–	995.43 kg/m3	–	–	–
x2 = 0.994	–	–	–	995.81 kg/m3	–	–	–
